{"source": "patent US10813929B2", "about": "“Treating cancer with ATR inhibitors” (VERTEX PHARMACEUTICALS INCORPORATED, priority 2011, dated 2020)", "key": {"[1]": {"tested_on": "MRCS fibroblasts", "assay": "Cell viability assay (Alamar Blue) with irradiation, normal cells", "type": "cell-based", "conditions": "VE-821 for 96 h with or without 4 Gy; viability after 8 days; FIG. 1 panel B", "protocol": "PSN-1, Panc-1, MiaPaCa-2 pancreatic cancer cell lines and MRCS fibroblasts were treated with increasing concentrations of VE-821 for 96 h combined with or without 4 Gy radiation at 1 h after VE-821 addition. Cell viability was measured after 8 days and shown as normalized to DMSO-treated cells. MiaPaCa-2, PSN-1, Panc1 and MRCS cells (5×104) were plated in 96-well plates and after 4 h treated with increasing concentrations of VE-821 at 1 h before irradiation with a single dose of 6 Gy. Medium was replaced 96 h post-irradiation at which point viability was measured using the using the Alamar Blue assay (Resazurin substrate, SIGMA). Cells were allowed to proliferate and cell viability was again analyzed at day 8 for the different treatment conditions. Cell viability and surviving fraction were normalized to the untreated (control) group."}, "[2]": {"tested_on": "pancreatic cancer cells", "assay": "Cell cycle analysis by flow cytometry after irradiation", "type": "cell-based", "conditions": "1 μM VE-821 1 h prior to 6 Gy; FIG. 7 (hypoxic), FIG. 4", "protocol": "VE-821 (1 μM) was added 1 h prior to 6 Gy irradiation and left for the duration of the experiment. Cells were lifted and fixed at 12 h or 24 h after irradiation, stained with propidium iodide and analysed for cell cycle distribution by flow cytometry (n=3) Cells were pre-incubated under hypoxic (0.5% O2) conditions for 6 h and 1 μM VE-821 was added 1 h prior to irradiation (6 Gy). Cells were transferred to normoxia 1 h after irradiation and were lifted and fixed at 12 h or 24 h after irradiation, stained with propidium iodide and analysed for cell cycle distribution by flow cytometry (n=3). Cells growing in 6-well dishes were treated with 1 μM VE-821 drug 1 h prior to 6 Gy irradiation. Cells were incubated for 6 h before irradiation under oxia (21% O2) or hypoxia (0.5% O2) using tightly sealed chambers. At multiple time points, cells were lifted in trypsin and fixed in 70% ethanol and stored at 4° C. Cells were incubated with propidium iodide (50 μg/ml in PBS containing 200 μg/ml RNAse) for 1 h at room temperature and analysed by flow cytometry (FACSort, Becton Dickinson). Cell cycle phase was quantitated using ModFit Cell Cycle Analysis software."}, "[3]": {"tested_on": "DNA damage foci and RAD51 foci", "assay": "Nuclear foci analysis (γH2AX, 53BP1, RAD51)", "type": "cell-based", "conditions": "1 μM VE-821, 6 Gy", "protocol": "Cells were treated with 1 μM VE-821 at various time points in relation to 6 Gy irradiation, as indicated, and fixed at 24 h post-irradiation. Subsequently, cells were stained for (A) γH2AX and (B) 53BP1 foci and the percentage of cells with more than 7 and 5 foci per cell was quantitated, respectively. C, for analysing Rad51 foci formation, cells were fixed at 6 h post-irradiation and the percentage of cells with more than 9 foci per cell was quantitated. Representative images are shown on the right (n=3). *, P<0.05 Cells growing in 96-well plates were treated with 1 μM VE-821 drug 1 h prior to 6 Gy irradiation and fixed in 3% formaldehyde at multiple time points. Cells were subsequently pearmeabalised and blocked in PBS with 0.1% Triton 1% BSA (w/v). Cells were incubated with primary antibody overnight at 4° C. and after a PBS wash incubated with fluorescently labeled secondary antibody followed gy a PBS wash and nuclear staining with DAPI. Images were acquired and foci quantitated using an IN Cell Analyzer 1000 automated epifluorescence microscope and analysis software (GE Healthcare, Cahlfont St. Giles, UK)"}, "[4]": {"tested_on": "MiaPaCa pancreatic cancer xenograft", "assay": "MiaPaCa pancreatic cancer xenograft model with ionizing radiation", "type": "in vivo", "conditions": "FIG. 13"}, "[5]": {"tested_on": "PSN-1 pancreatic cancer xenograft", "assay": "PSN-1 pancreatic cancer xenograft model with ionizing radiation", "type": "in vivo", "conditions": "PSN-1 xenograft; FIGS. 14 and 15"}, "[6]": {"tested_on": "panel of 35 human lung cancer cell lines", "assay": "Lung cancer cell screen, CellTiter-Glo cell viability assay", "type": "cell-based", "conditions": "96 hours", "protocol": "All cell lines were seeded in 30 μl of tissue culture medium containing 10% FBS into 384-well opaque-bottom assay plates. The seeding density was based on the logarithmic growth rate of each cell line. After 24 hours, compound stock solutions were added to each well to afford a matrix consisting of 5 concentrations for VE-822 and 6 concentrations for chemotoxics. Each well contains either, agent alone or a combination of both agents. The final concentration range for VE-822 was 25 nM-2 μM. The concentration ranges for the chemotoxics were as follows: Etoposide, 10 nM-10 μM; Gemcitabine, 0.16 nM-160 nM; Cisplatin, 20 nM-20 μM; Oxaliplatin, 40 nM-40 μM; Irinotecan (SN-38), 0.12 nM-120 nM. The cells were then incubated for 96 hours at 37° C. in an atmosphere of 5% CO2 and 95% humidity.\nThis assay measures the number of viable cells in a culture based on the quantitation of ATP, which is present in metabolically active cells.\nCellTiter-Glo Reagent (Promega, Madison, Wis., USA) was prepared according to the manufacturer's instructions and added 96 hours after compound addition (25 μl/well) to measure cell viability. Luminescence signal was measured with the PHERAStarFS (BMG Labtech, Cary, N.C., USA) automated plate reader. […]\nRaw luminescence CellTiter-Glo (CTG) values were normalized to the mean CTG value for the negative control DMSO-treated samples on each assay plate. […]"}}}
{"smiles": "CS(=O)(=O)c1ccc(-c2cnc(N)c(C(=O)Nc3ccccc3)n2)cc1", "note": "[VE-821]", "values": [{"measurement": "radiosensitisation of normal cells (cell viability)", "setting": "[1]", "result": "not normal cells"}, {"measurement": "damage-induced cell cycle checkpoints", "setting": "[2]", "result": "disrupts damage-induced cell cycle checkpoints"}, {"measurement": "RAD51 foci formation", "setting": "[3]; fixed 6 h post-irradiation, FIG. 5", "result": "reduces RAD51 foci formation"}, {"measurement": "53BP1 and γH2AX foci number", "setting": "[3]; fixed 24 h post-irradiation, FIG. 5", "result": "increases 53BP1 and γH2AX foci number"}, {"measurement": "repair of DNA damage by homologous recombination", "setting": "[3]; FIG. 5 panels A, B, C", "result": "inhibits repair of DNA damage by homologous recombination"}]}
{"smiles": "CNCc1ccc(-c2cc(-c3nc(-c4ccc(S(=O)(=O)C(C)C)cc4)cnc3N)on2)cc1", "note": "[VE-822]", "values": [{"measurement": "antitumor effects of ionizing radiation (tumor volume over time)", "setting": "[4]", "result": "enhances the antitumor effects of ionizing radiation"}, {"measurement": "antitumor effects of ionizing radiation (tumor volume over time)", "setting": "[5]", "result": "enhances the antitumor effects of ionizing radiation"}, {"measurement": "synergy with chemotoxics across lung cancer cell lines", "setting": "[6]; maximum shift in IC50 of each chemotoxic, FIG. 16", "result": "Synergizes with Chemotoxics"}, {"measurement": "synergy (shift in IC50 of chemotoxic) in lung cancer cell lines", "setting": "[6]; with cisplatin, etoposide, gemcitabine, oxaplatin and irinotecan, FIG. 17", "result": "greater than 3 fold"}]}
